Active and inactive are the calls of the source. The rule behind the calls is not given here.
What was measured:
Mus musculus = test: Toxicity in Plasmodium berghei NK65-infected ICR mice (Mus musculus) assessed as death at 20 mg/kg/day, intraperitoneally administered 24 hrs after infection for 3 consecutive days measured 4 days postinfection; format: organism-based; parameters: route intraperitoneal; conditions: in vivo, ip, 96 h
Plasmodium berghei [1] = test: Antimalarial activity as reduced parasitaemia at day 4 against Plasmodium berghei NK65 infected ICR mice (Mus musculus) at 100 mg/kg/day peroral dose for 3 days; format: functional; parameters: scale not given: the % may be the effect or the level left; conditions: route oral
Plasmodium berghei [2] = test: Antimalarial activity as mean survival days against Plasmodium berghei NK65 infected ICR mice (Mus musculus) at 20 mg/kg/day intraperitoneal dose; format: functional
Plasmodium berghei [3] = test: Antimalarial activity as mean survival days against Plasmodium berghei NK65 infected ICR mice (Mus musculus) at 100 mg/kg/day peroral dose at day 4; format: functional; conditions: route oral
Plasmodium berghei [4] = test: Antimalarial activity as reduced parasitaemia against Plasmodium berghei NK65 infected ICR mice (Mus musculus) at 20 mg/kg/day intraperitoneal dose at day 4; format: functional; parameters: scale not given: the % may be the effect or the level left
[5] = Plasma concentration in fasted Wistar rat at 30 mg/kg/day, po after 49 hrs by HPLC; format: ADME, organism-based; parameters: route oral
[6] = Plasma concentration in Wistar rat at 4 mg/kg, iv administered as single dose after 4 hrs by HPLC; format: ADME, organism-based; parameters: dose 4 mg/kg, route intravenous
[7] = Plasma concentration in Wistar rat at 4 mg/kg, iv administered as single dose after 10 mins by HPLC; format: ADME, organism-based; parameters: dose 4 mg/kg, route intravenous
[8] = Plasma concentration in fasted Wistar rat at 4 mg/kg, po administered as single dose after 2 hrs by HPLC; format: ADME, organism-based; parameters: dose 4 mg/kg, route oral
[9] = Plasma concentration in fasted Wistar rat at 4 mg/kg, po administered as single dose after 1 hr by HPLC; format: ADME, organism-based; parameters: dose 4 mg/kg, route oral
Plasmodium falciparum = test: Antimalarial activity against chloroquine and pyrimethamine-resistant Plasmodium falciparum K1; format: functional, organism-based
[10] = Tmax in Wistar rat at 30 mg/kg, po administered as single dose; format: ADME, organism-based; parameters: dose 30 mg/kg, route oral; conditions: in vivo
[11] = Plasma concentration in fasted Wistar rat at 30 mg/kg, po administered as single dose after 2 hrs by HPLC; format: ADME, organism-based; parameters: dose 30 mg/kg, route oral
[12] = Clearance in Wistar rat at 30 mg/kg, po administered as single dose; format: ADME, organism-based; parameters: dose 30 mg/kg, route oral; conditions: in vivo
[13] = Plasma concentration in fasted Wistar rat at 30 mg/kg, po after 1 hr by HPLC; format: ADME, organism-based; parameters: dose 30 mg/kg, route oral
Plasmodium berghei [14] = test: Antimalarial activity as reduced parasitaemia against Plasmodium berghei NK65 infected ICR mice (Mus musculus) at 4 mg/kg peroral dose at day 4; format: functional; parameters: scale not given: the % may be the effect or the level left; conditions: route oral
Plasmodium berghei [15] = test: (§1) Antimalarial activity as reduced parasitaemia at day 6 against Plasmodium berghei NK65 infected ICR mice (Mus musculus) at 30 mg/kg/day peroral dose for 3 days; format: functional, organism-based
[16] = Half life in Wistar rat at 30 mg/kg, po administered as single dose; format: ADME, organism-based; parameters: dose 30 mg/kg, route oral; conditions: in vivo
[17] = Plasma concentration in fasted Wistar rat at 30 mg/kg/day, po after 25 hrs by HPLC; format: ADME, organism-based; parameters: route oral
[18] = Clearance in Wistar rat at 4 mg/kg, po administered as single dose; format: ADME, organism-based; parameters: dose 4 mg/kg, route oral; conditions: in vivo
Plasmodium berghei [19] = test: Antimalarial activity as reduced parasitaemia at day 7 against Plasmodium berghei NK65 infected ICR mice (Mus musculus) at 30 mg/kg/day peroral dose for 3 days; format: functional, organism-based
Plasmodium berghei [20] = test: as §1; format: functional; parameters: scale not given: the % may be the effect or the level left; conditions: route oral
Plasmodium berghei [21] = test: Antimalarial activity as reduced parasitaemia against Plasmodium berghei NK65 infected ICR mice (Mus musculus) at 4 mg/kg intravenous dose at day 4; format: functional; parameters: scale not given: the % may be the effect or the level left
[22] = Clearance in Wistar rat at 4 mg/kg, iv administered as single dose; format: ADME, organism-based; parameters: dose 4 mg/kg, route intravenous; conditions: in vivo
[23] = Oral bioavailability in Wistar rat at 4 mg/kg administered as single dose; format: ADME, organism-based; conditions: in vivo
Rattus norvegicus [24] = test: Apparent volume of distribution in Wistar rat at 30 mg/kg, po administered as single dose; format: ADME, organism-based; parameters: dose 30 mg/kg, route oral; conditions: in vivo
[25] = Tmax in Wistar rat at 4 mg/kg, po administered as single dose; format: ADME, organism-based; parameters: dose 4 mg/kg, route oral; conditions: in vivo
Rattus norvegicus [26] = test: Apparent volume of distribution in Wistar rat at 4 mg/kg, po administered as single dose; format: ADME, organism-based; parameters: dose 4 mg/kg, route oral; conditions: in vivo
[27] = Half life in Wistar rat at 4 mg/kg, iv administered as single dose; format: ADME, organism-based; parameters: dose 4 mg/kg, route intravenous; conditions: in vivo
Plasmodium berghei [28] = test: Antimalarial activity as reduced parasitaemia against Plasmodium berghei NK65 infected ICR mice (Mus musculus) at 30 mg/kg peroral dose at day 4; format: functional; parameters: scale not given: the % may be the effect or the level left; conditions: route oral
Plasmodium berghei [29] = test: Antimalarial activity as recurrence of parasitaemia at day 5 in Plasmodium berghei NK65 infected ICR mice (Mus musculus) at 4 mg/kg/day peroral dose for 3 days; format: functional, organism-based
[30] = Plasma concentration in fasted Wistar rat at 30 mg/kg, po administered as single dose after 1 hr by HPLC; format: ADME, organism-based; parameters: dose 30 mg/kg, route oral
[31] = Oral bioavailability in Wistar rat at 30 mg/kg administered as single dose; format: ADME, organism-based; conditions: in vivo
[32] = Apparent volume of distribution in Wistar rat at 4 mg/kg, iv administered as single dose; format: ADME, organism-based; parameters: dose 4 mg/kg, route intravenous; conditions: in vivo, read-out: Vz
[33] = Half life in Wistar rat at 4 mg/kg, po administered as single dose; format: ADME, organism-based; parameters: dose 4 mg/kg, route oral; conditions: in vivo
[34] = Selectivity index, ratio of IC50 for rat L6 cells to IC50 for chloroquine and pyrimethamine-resistant Plasmodium falciparum K1; format: toxicity, cell-based; conditions: read-out: Ratio IC50
Plasmodium berghei [35] = test: Antimalarial activity recurrence of parasitaemia in Plasmodium berghei NK65 infected ICR mice (Mus musculus) at 4 mg/kg/day intravenous dose for 3 days; format: functional, organism-based
Plasmodium berghei [36] = test: Antimalarial activity as mean survival days against Plasmodium berghei NK65 infected ICR mice (Mus musculus) at 10 mg/kg/day intraperitoneal dose 24 hrs post infection; format: functional
Plasmodium berghei [37] = test: Antimalarial activity at day 4 against Plasmodium berghei NK65 infected ICR mice (Mus musculus) as reduced parasitaemia at 10 mg/kg/day intraperitoneal dose 24 hrs post infection; format: functional; parameters: scale not given: the % may be the effect or the level left
Plasmodium berghei [38] = test: Antimalarial activity as reduced parasitaemia against Plasmodium berghei NK65 infected ICR mice (Mus musculus) at 30 mg/kg/day peroral dose at day 4; format: functional; parameters: scale not given: the % may be the effect or the level left; conditions: route oral
Plasmodium berghei [39] = test: Antimalarial activity as mean survival days against Plasmodium berghei NK65 infected ICR mice (Mus musculus) at 30 mg/kg/day peroral dose; format: functional; conditions: route oral

For CCCCCCN(CCCCCC)c1ccc2nc3ccc(N4CCCCC4)cc3[o+]c2c1.[Cl-], the Activity (Mus musculus) was “Toxic”.

For [Cl-].c1cc2nc3ccc(N4CCCCC4)cc3[o+]c2cc1N1CCCCC1, the Activity (Plasmodium berghei [1]) was 99.8%, the MSD (Plasmodium berghei [2]) was 16.8 days and the MSD (Plasmodium berghei [3]) was 11.3 days. For the same molecule, the Activity (Plasmodium berghei [4]) was 97.2%.

CCCN(CCC)c1ccc2nc3ccc(N4CCCCC4)cc3[o+]c2c1.[Cl-] gave an Activity (Plasmodium berghei [1]) of 97.6%, an MSD (Plasmodium berghei [2]) of 12.3 days and an MSD (Plasmodium berghei [3]) of 10.3 days. For the same molecule, the Activity (Plasmodium berghei [4]) was 93.2%.

With CCCCCN(CCCCC)c1ccc2nc3ccc(N4CCCCC4)cc3[o+]c2c1.[Cl-] the Activity (Mus musculus) was “Toxic”.

With CCCN(CCC)c1ccc2nc3ccc(N4CCSCC4)cc3[o+]c2c1.[Cl-] the Activity (Plasmodium berghei [1]) was 68.9%, the MSD (Plasmodium berghei [2]) was 12.5 days and the MSD (Plasmodium berghei [3]) was 7 days. The Activity (Plasmodium berghei [4]) was 96.5%.

Molecule CN(C)c1ccc2nc3ccc(N4CCCC4)cc3[o+]c2c1.[Cl-] has an Activity (Plasmodium berghei [1]) of 90.3%, an MSD (Plasmodium berghei [2]) of 7.8 days and an MSD (Plasmodium berghei [3]) of 10 days. It also gave an Activity (Plasmodium berghei [4]) of 95.7%.

Molecule CCN(CC)c1ccc2nc3ccc(N4CCOCC4)cc3[o+]c2c1.[Cl-] has an Activity (Plasmodium berghei [1]) of 96.3%, an MSD (Plasmodium berghei [2]) of 12.3 days and an MSD (Plasmodium berghei [3]) of 13 days. The Activity (Plasmodium berghei [4]) was 90%.

With CCN(CC)c1ccc2nc3ccc(N4CCSCC4)cc3[o+]c2c1.[Cl-] the Activity (Plasmodium berghei [1]) was 66.3%, the MSD (Plasmodium berghei [2]) was 11.5 days and the MSD (Plasmodium berghei [3]) was 6.3 days. For the same molecule, the Activity (Plasmodium berghei [4]) was 99.2%.

CCN(CC)c1ccc2nc3ccc(N4CCCCC4)cc3[o+]c2c1.[Cl-] showed a concentration at 49 h [5] of 583 ng/mL, a concentration at 4 h [6] of 96.6 ng/mL and a concentration at 10 min [7] of 468 ng/mL. The concentration at 2 h [8] was 158 ng/mL, the concentration at 1 h [9] was 658 ng/mL and the IC50 (Plasmodium falciparum) was 2.69 nM. It also gave a Tmax [10] of 0.98 h, a concentration at 2 h [11] of 158 ng/mL and a CL/F [12] of 43.3 mL/min/kg. It also gave an Activity (Plasmodium berghei [1]) of 97.8%, a concentration at 1 h [13] of 299 ng/mL and an Activity (Plasmodium berghei [14]) of 76%. The Activity (Plasmodium berghei [15]) was “Active”, the half-life [16] was 10.3 h and the concentration at 25 h [17] was 420 ng/mL. The CL/F [18] was 43.3 mL/min/kg, the Activity (Plasmodium berghei [19]) was “inactive” and the Activity (Plasmodium berghei [20]) was 90%. The Activity (Plasmodium berghei [21]) was 85.9%, the MSD (Plasmodium berghei [2]) was 23.3 days and the clearance [22] was 44.5 mL/min/kg. It also gave a bioavailability [23] of 89.6%, a Vz (Rattus norvegicus [24]) of 38.5 L/kg and a Tmax [25] of 0.99 h. It also gave a Vz (Rattus norvegicus [26]) of 36.9 L/kg, an MSD (Plasmodium berghei [3]) of 12.7 days and an Activity (Plasmodium berghei [4]) of 95.9%. For the same molecule, the half-life [27] was 8.82 h, the Activity (Plasmodium berghei [28]) was 96.2% and the Activity (Plasmodium berghei [29]) was “inactive”. The concentration at 1 h [30] was 658 ng/mL, the bioavailability [31] was 60.7% and the Vd [32] was 35.3 L/kg. For the same molecule, the half-life [33] was 9.84 h, the selectivity ratio [34] was 2390 and the Activity (Plasmodium berghei [35]) was “inactive”.

In the case of CN(C)c1ccc2nc3ccc(N4CCSCC4)cc3[o+]c2c1.[Cl-], the Activity (Plasmodium berghei [1]) is reported as 84.9%, the MSD (Plasmodium berghei [2]) is reported as 9.8 days and the MSD (Plasmodium berghei [3]) is reported as 11.3 days. For the same molecule, the Activity (Plasmodium berghei [4]) was 94.5%.

Molecule CCN(CC)CCCC(C)Nc1ccnc2cc(Cl)ccc12 (configuration not stated) [CHLOROQUINE] has an MSD (Plasmodium berghei [36]) of 22.7 days, an Activity (Plasmodium berghei [37]) of 90.6% and an Activity (Plasmodium berghei [38]) of 98.4%. The MSD (Plasmodium berghei [39]) was 9.6 days.

With CCCCN(CCCC)c1ccc2nc3ccc(N4CCCCC4)cc3[o+]c2c1.[Cl-] the Activity (Mus musculus) was “Toxic”.

Work on CCCN(CCC)c1ccc2nc3ccc(N4CCOCC4)cc3[o+]c2c1.[Cl-] yielded an Activity (Plasmodium berghei [1]) of 99.5%, an MSD (Plasmodium berghei [2]) of 18 days and an MSD (Plasmodium berghei [3]) of 10 days. For the same molecule, the Activity (Plasmodium berghei [4]) was 95.7%.

Work on CN(C)c1ccc2nc3ccc(N4CCCCC4)cc3[o+]c2c1.[Cl-] yielded an Activity (Plasmodium berghei [1]) of 97.8%, an MSD (Plasmodium berghei [2]) of 15.5 days and an MSD (Plasmodium berghei [3]) of 7.6 days. It also gave an Activity (Plasmodium berghei [4]) of 96.4%.

CCCN(CCC)c1ccc2nc3ccc(N4CCCC4)cc3[o+]c2c1.[Cl-] showed an Activity (Plasmodium berghei [1]) of 99.6%, an MSD (Plasmodium berghei [2]) of 14.8 days and an MSD (Plasmodium berghei [3]) of 10 days. For the same molecule, the Activity (Plasmodium berghei [4]) was 95.2%.

Molecule [Cl-].c1cc2nc3ccc(N4CCCC4)cc3[o+]c2cc1N1CCCC1 has an Activity (Plasmodium berghei [1]) of 95.3%, an MSD (Plasmodium berghei [2]) of 8.3 days and an MSD (Plasmodium berghei [3]) of 8.3 days. For the same molecule, the Activity (Plasmodium berghei [4]) was 95.4%.
